Test results as given in PubChem BioAssay AID1918935 (Molecular Pharmacology Branch, DTP, NCI, 2023).
Several values for one entry are separate records, joined by “and”; a condition that tells them apart may be missing. Identical values can stand only once.

Tested on: 324938-238-R-J1-PDC complex spheroid viability
Assay: Anticancer human tumor 324938-238-R-J1-PDC patient-derived bladder carcinoma cell line growth inhibition
Settings: for viability, T/C: stronger effect = lower value
Source text: Multicellular complex tumor spheroid response to LSD1 Inhibitor Iadademstat in combination with a variety of drugs and investigational agents in selected tumor cell lines
The current study was undertaken to assess response to LSD1 inhibitors in combination with standard-of-care drugs and investigational agents in solid tumor complex spheroid models as well as in the K-562 leukemia. Complex spheroids include a stromal component modeled by human endothelial cells (HUVEC) and fibroblasts modeled by human mesenchymal stem cells (MSCs). The concentration ranges selected for each drug and investigational agent were based upon clinically achievable concentrations if the clinical Cmax of the agent was known.
Compounds. The drugs and investigational agents used in this study are listed on Table 1. All of the agents used, including staurosporine (NSC755774) and gemcitabine (NSC613327), were obtained from the Developmental Therapeutics Program, NCI. FDA-approved anticancer drugs are available from the NCI at http://dtp.nci.nih.gov/branches/dscb/oncology_drugset_explanation.html. Drugs and investigational agents were >95% pure by proton nuclear magnetic resonance (NMR) and liquid chromatography/mass spectrometry (LC/MS). Stock solutions were prepared at 400x in DMSO, stored at -70 degrees C, and diluted in fresh medium prior to their use. The final concentration of DMSO in cell culture wells never exceeded 0.25% (v/v). The FDA-approved anticancer drug set is available from the Developmental Therapeutics Program at https://dtp.cancer.gov/organization/dscb/obtaining/available_plates.htm. All drugs and investigational agents were tested over a range starting from a high concentration at or near the clinical Cmax and decreasing in half-log increments. If the clinical Cmax for an agent had not been determined, the highest concentration tested was 10 microM.
Cell Lines. The patient-derived cancer cell (PDC) lines: 292921-168-R-J2-PDC, K24384-001-R-PDC, and 521955-158-R2-J5-PDC pancreatic carcinomas, 556581-035-R-J1 ovarian carcinoma, 324938-238-R-J1-PDC, 855422-203-R-J1-PDC and 883617-216-R-J1-PDC urothelial bladder carcinomas, 743489-274-T-PDC renal cell carcinoma, 138582-R-J1 Merkel cell tumor, K60290-347-R-J1 and K57222-313-R-J1-PDC glioblastomas, 653999-131-R-J2-PDC, LG0703-F948-PDC, and 349418-098-R-PDC non-small cell lung carcinomas, 885512-296-R-J2-PDC, 171881-019-R-J1-PDC breast carcinomas and 186277-243-T-J2-PDC and 233499-124-R-J2-PDC colon carcinomas were obtained from the NCI Patient-Derived Models Repository (PDMR, https://pdmr.cancer.gov). The established cell lines NCI/ADR-RES (RRID:CVCL_14520 and OVCAR-5 (RRID:CVCL_1628) ovarian carcinomas, 786-O (RRID:CVCL_1051) and A498 (RRID:CVCL_A498) renal cell carcinoma, NCI-H211 (ATCC, cat. CRL-5824; RRID:CVCL_1529), NCI-H196 (ATCC, cat. CRL-5823, RRID:CVCL_1509), SW 1271 (ATCC, cat. CRL-2177, RRID:CVCL_1716) and NCI-H1876 (ATCC, cat. CRL-5902, RRID:CVCL_1503) small cell lung carcinomas, MDA-MB-231 (RRID:CVCL_0062) and MDA-MB-468 (RRID:CVCL_0419)breast carcinomas (10-12). Pooled donor human umbilical vein endothelial cells (HUVEC, Lonza, cat. CC-2519) and human mesenchymal stem cells (hMSC, Lonza, cat. PT-2501) were purchased from Lonza (Walkersville, MD).
Cell Culture. All cells were maintained in an incubator at 37 degrees C and 5% CO2 with 95% humidity. The PDC lines were cultured according to standard operating procedures established by the NCI PDMR (https://pdmr.cancer.gov). Briefly all PDCs were thawed and cultured in Matrigel-coated flasks prepared with a working solution of 1X Ham's F-12 nutrient mix, without supplementation (Invitrogen, Waltham, MA, cat. 11765054), 100 U/mL penicillin-streptomycin (Invitrogen, cat. 15140122), and 2.5% Matrigel (Corning Inc., Corning, NY, cat. 354248) for the first three passages. […]
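Also: spheroids also contain HUVEC and human MSCs and agents combined with iadademstat; spheroids exposed to agents for 7 days before readout.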

Question: `CC(C)c1c(-c2ccccc2)nc2c(C#N)c[nH]n2c1=O` was tested. Which viability, T/C (compound 0.0316 µM) did it give?
Answer: 98.8% and 110%

Question: And the viability, T/C (compound 0.1 µM)?
Answer: 108% and 110%

Question: What about the viability, T/C (compound 0.316 µM) of the same compound?
Answer: 96.5% and 120%

Question: What about the viability, T/C (compound 1 µM) of the same compound?
Answer: 92.4% and 107%

Question: What about the viability, T/C (compound 3.16 µM) of the same compound?
Answer: 89.5% and 95.7%

Question: And the viability, T/C (compound 10 µM)?
Answer: 81.7% and 80.9%

Question: And the IC50 (curve of compound)?
Answer: > 10 µM

Question: How did the viability, T/C (compound 0.0316 µM) turn out when `CC1(C)CCC(CN2CCN(c3ccc(C(=O)NS(=O)(=O)c4ccc(NCC5CCOCC5)c([N+](=O)[O-])c4)c(Oc4cnc5[nH]ccc5c4)c3)CC2)=C(c2ccc(Cl)cc2)C1` was run?
Answer: 99% and 104%

Question: And the viability, T/C (compound 0.1 µM)?
Answer: 102% and 108%

Question: And the viability, T/C (compound 0.316 µM)?
Answer: 107% and 109%

Question: What about the viability, T/C (compound 1 µM) of the same compound?
Answer: 103% and 90.5%

Question: What about the viability, T/C (compound 3.16 µM) of the same compound?
Answer: 90.8% and 83%

Question: And the viability, T/C (compound 10 µM)?
Answer: 28.4% and 20.4%

Question: And the IC50 (curve of compound)?
Answer: 6.73 µM and 5.65 µM

Question: Which results are given for `CC1COCCN1c1cc(C2(S(C)(=N)=O)CC2)nc(-c2ccnc3[nH]ccc23)n1` (stereo unspecified)?
Answer: viability, T/C (compound 0.0316 µM): 104% and 97.9%; viability, T/C (compound 0.1 µM): 101% and 108%; viability, T/C (compound 0.316 µM): 98.3% and 78.8%; viability, T/C (compound 1 µM): 71.4% and 44.7%; viability, T/C (compound 3.16 µM): 27.9% and 21.4%; viability, T/C (compound 10 µM): 14.6% and 8.79%; IC50 (curve of compound): 1.76 µM and 0.853 µM

Question: Which results are given for `CCN(c1cc(-c2ccc(CN3CCOCC3)cc2)cc(C(=O)NCc2c(C)cc(C)[nH]c2=O)c1C)C1CCOCC1`?
Answer: viability, T/C (compound 0.00949 µM): 100% and 111%; viability, T/C (compound 0.03 µM): 105%; viability, T/C (compound 0.0949 µM): 96.9% and 101%; viability, T/C (compound 0.3 µM): 96.7% and 97.5%; viability, T/C (compound 0.949 µM): 94.5% and 98.9%; viability, T/C (compound 3 µM): 91.2% and 99%; IC50 (curve of compound): > 3 µM

Question: With `COc1ccc([C@@H](O)c2cc(-c3ncnc4cc(N5CCOCC5)ccc34)c(F)cc2Cl)nn1` as the compound, how does the viability, T/C (compound 0.0316 µM) read?
Answer: 102%

Question: And the viability, T/C (compound 0.1 µM)?
Answer: 95.8% and 99.8%

Question: What about the viability, T/C (compound 0.316 µM) of the same compound?
Answer: 86.6% and 81.7%

Question: What about the viability, T/C (compound 1 µM) of the same compound?
Answer: 69.1% and 64.7%

Question: What about the viability, T/C (compound 3.16 µM) of the same compound?
Answer: 50.8% and 45.9%

Question: And the viability, T/C (compound 10 µM)?
Answer: 32.3% and 27.2%

Question: And the IC50 (curve of compound)?
Answer: 3.24 µM and 2.34 µM

Question: What does the source list for `NC1CC1c1ccc(-c2cccc(O)c2)cc1` (stereo unspecified)?
Answer: viability, T/C (compound 0.1 µM): 86.9% and 102% and 91.3%; viability, T/C (compound 3.16 µM): 73.9% [middle of 23 runs]; IC50 (compound alone, run of 12/07/2021): > 10 µM

Question: What does the source list for `NC1CCC(NC2CC2c2ccccc2)CC1` (stereo unspecified)?
Answer: viability, T/C (compound 0.1 µM): 78.6% [middle of 25 runs]; viability, T/C (compound 0.316 µM): 86.7% and 75.8% and 76.6%; viability, T/C (compound 1 µM): 75.9% [middle of 25 runs]; viability, T/C (compound 3.16 µM): 73.6% [middle of 24 runs]; viability, T/C (compound 10 µM): 72.2% [middle of 23 runs]; IC50 (compound alone, run of 11/29/2021): > 10 µM

Question: Which results are given for `O=C(c1cc(Cc2n[nH]c(=O)c3ccccc23)ccc1F)N1CCN(C(=O)C2CC2)CC1`?
Answer: viability, T/C (compound 0.0316 µM): 100% and 104%; viability, T/C (compound 0.1 µM): 100% and 104%; viability, T/C (compound 0.316 µM): 107% and 96.3%; viability, T/C (compound 1 µM): 87.4% and 80.7%; viability, T/C (compound 3.16 µM): 64.5% and 48.9%; viability, T/C (compound 10 µM): 40.4% and 31.9%; IC50 (curve of compound): 6.26 µM and 3.09 µM

Question: For `Nc1ncn(C2CC(O)C(CO)O2)c(=O)n1` (stereo unspecified) + NC1CC1c1ccc(-c2cccc(O)c2)cc1, which IC50 (curve of first compound, second compound 0.1 µM) is on record?
Answer: 0.311 µM

Question: And the IC50 (curve of first compound, second compound 0.316 µM)?
Answer: 0.143 µM

Question: What about the IC50 (curve of first compound, second compound 1 µM) of the same compound?
Answer: 0.237 µM

Question: And the IC50 (curve of first compound, second compound 3.16 µM)?
Answer: 0.227 µM

Question: And the IC50 (curve of first compound, second compound 10 µM)?
Answer: 0.258 µM

Question: And the viability, T/C (second compound 0.1 µM, first compound 0.00316 µM)?
Answer: 95.1%

Question: And the viability, T/C (second compound 0.1 µM, first compound 0.01 µM)?
Answer: 90.3%

Question: And the viability, T/C (second compound 0.1 µM, first compound 0.0316 µM)?
Answer: 79.2%

Question: And the viability, T/C (second compound 0.1 µM, first compound 0.1 µM)?
Answer: 62.8%

Question: What about the viability, T/C (second compound 0.1 µM, first compound 0.316 µM) of the same compound?
Answer: 49.7%

Question: What about the viability, T/C (second compound 0.1 µM, first compound 1 µM) of the same compound?
Answer: 43.9%

Question: And the viability, T/C (second compound 0.316 µM, first compound 0.00316 µM)?
Answer: 73.6%

Question: And the viability, T/C (second compound 0.316 µM, first compound 0.01 µM)?
Answer: 74.5%

Question: What about the viability, T/C (second compound 0.316 µM, first compound 0.0316 µM) of the same compound?
Answer: 67.6%

Question: And the viability, T/C (second compound 0.316 µM, first compound 0.1 µM)?
Answer: 52.4%

Question: And the viability, T/C (second compound 0.316 µM, first compound 0.316 µM)?
Answer: 44.9%

Question: What about the viability, T/C (second compound 0.316 µM, first compound 1 µM) of the same compound?
Answer: 41%

Question: What about the viability, T/C (second compound 1 µM, first compound 0.00316 µM) of the same compound?
Answer: 70.4%

Question: What about the viability, T/C (second compound 1 µM, first compound 0.01 µM) of the same compound?
Answer: 70.9%

Question: What about the viability, T/C (second compound 1 µM, first compound 0.0316 µM) of the same compound?
Answer: 62.8%

Question: What about the viability, T/C (second compound 1 µM, first compound 0.1 µM) of the same compound?
Answer: 57%

Question: What about the viability, T/C (second compound 1 µM, first compound 0.316 µM) of the same compound?
Answer: 47.9%

Question: What about the viability, T/C (second compound 1 µM, first compound 1 µM) of the same compound?
Answer: 41.2%

Question: And the viability, T/C (second compound 3.16 µM, first compound 0.00316 µM)?
Answer: 74.7%

Question: And the viability, T/C (second compound 3.16 µM, first compound 0.01 µM)?
Answer: 57.7%

Question: And the viability, T/C (second compound 3.16 µM, first compound 0.0316 µM)?
Answer: 68.5%

Question: What about the viability, T/C (second compound 3.16 µM, first compound 0.1 µM) of the same compound?
Answer: 56.3%

Question: What about the viability, T/C (second compound 3.16 µM, first compound 0.316 µM) of the same compound?
Answer: 45.4%

Question: And the viability, T/C (second compound 3.16 µM, first compound 1 µM)?
Answer: 39.3%

Question: What about the viability, T/C (second compound 10 µM, first compound 0.00316 µM) of the same compound?
Answer: 63.3%

Question: What about the viability, T/C (second compound 10 µM, first compound 0.01 µM) of the same compound?
Answer: 73.7%

Question: What about the viability, T/C (second compound 10 µM, first compound 0.0316 µM) of the same compound?
Answer: 69.9%

Question: What about the viability, T/C (second compound 10 µM, first compound 0.1 µM) of the same compound?
Answer: 57.6%

Question: And the viability, T/C (second compound 10 µM, first compound 0.316 µM)?
Answer: 49.7%

Question: And the viability, T/C (second compound 10 µM, first compound 1 µM)?
Answer: 41.4%
